Reference: ChEMBL document CHEMBL1201862, “PubChem BioAssay data set” (2004)
Activity calls are given as the source filed them.

Columns and labels:
Protein Tat = Protein Tat (Human immunodeficiency virus type 1 group M subtype B (isolate HXB2)(HIV-1), UniProt P04608); format: functional;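 also: tat binding to TAR RNA read out by fluorescence polarization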
[1] = Luminescence-based cell-based high throughput dose response assay to identify activators of the DAF-12 from the parasite S. stercoralis (ssDAF-12).; format: functional
[2] = target: T1, Oxysterols receptor LXR-beta (Homo sapiens, UniProt P55055); assay: LXR agonists, Gal4 luciferase reporter, dose response, counter-screen for ssDAF-12 agonist project, cell-based, luminescence, HEK293, S. stercoralis campaign (AID 720737); format: functional; conditions: read-out: IC50 (the source's name)
T1 sequence (P55055 whole entry): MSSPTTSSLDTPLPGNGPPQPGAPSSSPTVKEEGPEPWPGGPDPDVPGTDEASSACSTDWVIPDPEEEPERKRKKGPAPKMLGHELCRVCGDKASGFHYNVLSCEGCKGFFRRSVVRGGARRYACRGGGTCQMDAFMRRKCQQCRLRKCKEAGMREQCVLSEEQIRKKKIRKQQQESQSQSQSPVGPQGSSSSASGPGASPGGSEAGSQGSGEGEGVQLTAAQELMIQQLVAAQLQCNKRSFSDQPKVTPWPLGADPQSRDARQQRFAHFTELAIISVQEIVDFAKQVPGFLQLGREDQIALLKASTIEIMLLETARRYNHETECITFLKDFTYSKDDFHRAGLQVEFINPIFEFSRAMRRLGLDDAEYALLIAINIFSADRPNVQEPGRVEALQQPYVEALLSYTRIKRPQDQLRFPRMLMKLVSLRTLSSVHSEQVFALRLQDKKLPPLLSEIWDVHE

[3] = Artemis endonuclease inhibitor potency, dose response, biochemical, fluorescence intensity (AID 720701); format: functional;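 also: Artemis endonuclease enzyme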
[4] = microbe, parasite or virus in culture; format: functional; conditions: Mycobacterium tuberculosis
[5] = target: T1, Oxysterols receptor LXR-beta; format: functional, cell-based
[6] = inhibitors of PGC1a acetylation in cells, dose response, cell-based, cherry-picked samples (AID 720514); format: functional;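 also: potency may reflect raised or lowered acetylation signal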
Caspase-6 = Caspase-6 (Homo sapiens, UniProt P55212); assay: human caspase-6 inhibitors, dose response, biochemical, VEID-R110 fluorescence, cherry-pick (AID 720632)
[7] = Counterscreen for AddAB inhibitors: absorbance-based bacterial cell-based high throughput dose response assay for inhibitors of bacterial viability. [Related pubchem assays (depositor defined):AID435030, AID449728, AID449731, AID488942, AID488955, AID488956]; format: functional
Exodeoxyribonuclease V = target: T2, Exodeoxyribonuclease V (Escherichia coli (strain K12), UniProt P04993+P07648+P08394); assay: E. coli RecBCD inhibitors, dose response, counter-screen for AddAB inhibitor project, absorbance, V66 E. coli, mutant T4 phage (AID 492957); format: functional, cell-based, Escherichia coli str. K-12 substr. MG1655
T2 sequence (P04993 whole entry): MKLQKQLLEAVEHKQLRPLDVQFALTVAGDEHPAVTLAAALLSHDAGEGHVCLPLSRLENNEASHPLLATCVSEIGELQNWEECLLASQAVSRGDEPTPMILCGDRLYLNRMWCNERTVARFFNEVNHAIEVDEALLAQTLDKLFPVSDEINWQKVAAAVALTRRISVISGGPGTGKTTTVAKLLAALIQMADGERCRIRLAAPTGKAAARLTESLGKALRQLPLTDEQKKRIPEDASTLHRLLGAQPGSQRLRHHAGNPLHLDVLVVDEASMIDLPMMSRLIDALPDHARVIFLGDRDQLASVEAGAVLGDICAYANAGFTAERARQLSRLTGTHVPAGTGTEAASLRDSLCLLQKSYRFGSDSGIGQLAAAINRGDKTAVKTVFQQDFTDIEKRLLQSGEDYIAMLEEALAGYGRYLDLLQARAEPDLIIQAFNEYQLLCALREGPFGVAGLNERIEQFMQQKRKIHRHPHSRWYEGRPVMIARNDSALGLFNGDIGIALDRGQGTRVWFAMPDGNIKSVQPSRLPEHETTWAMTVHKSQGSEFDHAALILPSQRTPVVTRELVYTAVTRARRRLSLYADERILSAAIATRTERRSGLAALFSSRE
T2 sequence (P07648 whole entry): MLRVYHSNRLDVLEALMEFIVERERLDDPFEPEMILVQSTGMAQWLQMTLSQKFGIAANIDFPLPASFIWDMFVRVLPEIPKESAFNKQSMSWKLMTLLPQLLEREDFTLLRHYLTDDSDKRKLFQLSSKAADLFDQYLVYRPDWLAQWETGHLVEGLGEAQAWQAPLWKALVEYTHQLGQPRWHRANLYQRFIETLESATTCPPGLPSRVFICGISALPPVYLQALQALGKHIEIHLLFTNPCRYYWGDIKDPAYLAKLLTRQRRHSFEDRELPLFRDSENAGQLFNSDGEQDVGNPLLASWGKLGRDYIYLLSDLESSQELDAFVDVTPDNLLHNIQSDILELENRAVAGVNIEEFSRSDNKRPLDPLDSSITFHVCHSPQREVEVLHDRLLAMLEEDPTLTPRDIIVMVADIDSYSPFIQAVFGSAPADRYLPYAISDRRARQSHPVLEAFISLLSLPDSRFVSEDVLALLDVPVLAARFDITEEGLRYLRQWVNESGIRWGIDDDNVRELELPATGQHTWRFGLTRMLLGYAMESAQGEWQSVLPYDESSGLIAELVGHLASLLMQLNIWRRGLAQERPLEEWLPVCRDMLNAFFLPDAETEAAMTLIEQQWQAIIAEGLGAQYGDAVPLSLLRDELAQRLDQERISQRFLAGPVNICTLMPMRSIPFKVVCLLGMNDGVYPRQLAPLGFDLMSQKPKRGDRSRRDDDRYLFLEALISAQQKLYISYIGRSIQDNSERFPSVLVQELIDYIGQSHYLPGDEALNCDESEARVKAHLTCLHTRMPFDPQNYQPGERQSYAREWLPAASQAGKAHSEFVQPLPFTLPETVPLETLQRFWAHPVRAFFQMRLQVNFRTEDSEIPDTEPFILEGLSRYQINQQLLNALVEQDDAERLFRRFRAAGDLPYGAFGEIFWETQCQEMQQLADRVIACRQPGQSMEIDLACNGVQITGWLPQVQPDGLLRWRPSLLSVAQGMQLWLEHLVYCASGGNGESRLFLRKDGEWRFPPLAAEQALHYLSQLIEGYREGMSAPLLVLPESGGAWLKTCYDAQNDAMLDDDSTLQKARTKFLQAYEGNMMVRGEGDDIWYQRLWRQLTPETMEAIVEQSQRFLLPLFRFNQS
T2 sequence (P08394 whole entry): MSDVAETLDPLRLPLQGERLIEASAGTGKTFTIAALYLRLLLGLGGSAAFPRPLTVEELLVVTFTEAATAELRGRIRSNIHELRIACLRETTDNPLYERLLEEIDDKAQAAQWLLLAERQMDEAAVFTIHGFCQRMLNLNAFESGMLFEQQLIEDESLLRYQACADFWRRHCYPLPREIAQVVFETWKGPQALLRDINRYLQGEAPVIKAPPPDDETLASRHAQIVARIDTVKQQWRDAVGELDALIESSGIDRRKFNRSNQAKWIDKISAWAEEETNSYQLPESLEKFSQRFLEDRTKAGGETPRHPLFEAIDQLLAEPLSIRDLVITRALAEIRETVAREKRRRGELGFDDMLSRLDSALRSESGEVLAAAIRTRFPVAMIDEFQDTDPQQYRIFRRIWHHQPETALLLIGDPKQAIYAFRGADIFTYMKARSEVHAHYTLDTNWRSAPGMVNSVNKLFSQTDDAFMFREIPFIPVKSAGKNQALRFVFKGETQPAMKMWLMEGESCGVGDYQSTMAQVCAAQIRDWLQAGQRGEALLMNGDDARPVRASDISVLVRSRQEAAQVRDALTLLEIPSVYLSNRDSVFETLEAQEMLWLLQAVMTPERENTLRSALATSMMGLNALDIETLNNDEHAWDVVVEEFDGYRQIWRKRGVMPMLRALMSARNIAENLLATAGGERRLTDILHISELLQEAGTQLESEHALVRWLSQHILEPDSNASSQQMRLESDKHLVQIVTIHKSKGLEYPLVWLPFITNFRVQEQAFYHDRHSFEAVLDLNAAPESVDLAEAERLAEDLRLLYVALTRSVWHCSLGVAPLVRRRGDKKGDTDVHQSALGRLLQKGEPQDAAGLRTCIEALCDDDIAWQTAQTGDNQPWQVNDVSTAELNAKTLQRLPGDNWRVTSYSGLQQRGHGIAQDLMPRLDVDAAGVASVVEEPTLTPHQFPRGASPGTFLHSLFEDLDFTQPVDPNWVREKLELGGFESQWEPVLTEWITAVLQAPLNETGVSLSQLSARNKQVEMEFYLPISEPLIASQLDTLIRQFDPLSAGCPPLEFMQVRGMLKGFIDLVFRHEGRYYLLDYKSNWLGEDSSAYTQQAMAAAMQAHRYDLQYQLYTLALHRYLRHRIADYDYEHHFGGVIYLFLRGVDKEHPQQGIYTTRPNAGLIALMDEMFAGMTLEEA

Beta-galactosidase = Beta-galactosidase (Escherichia coli, UniProt Q8VNN2); assay: beta-galactosidase enzyme inhibitors and activators, dose response, artefact control for CCR6 antagonist project, biochemical, E. coli enzyme, set 3 (AID 504712); format: functional
[8] = HEK293T cytotoxicity, dose response, cytotoxicity control for miR-122 modulator project, cell-based, inhibitor set, cherry-pick, set 2 (AID 720697); format: functional
[9] = miR-122 activators in hepatoma reporter cells, dose response, cell-based, Huh7 psiCHECK-miR122, Renilla luciferase, cherry-picked (AID 651956); format: functional;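 also: huh7 hepatoma cells stably carrying a psiCHECK-2 miR-122 sensor plasmid; renilla luciferase signal reporting endogenous miR-122 activity after 48 h compound exposure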
[10] = cytotoxicity dependent on PAX8, dose response, cell-based, plate reader, dry powder (AID 743049); format: functional
[11] = PAX5 activity inhibitors, dose response, selectivity assay for PAX8 inhibitor project, cell-based, plate reader, dry powder samples (AID 743047); format: functional;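 also: HEK293 cells carrying a Pax5 driven CD19 promoter luciferase reporter; potency of inhibitors that lower reporter luminescence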
[12] = PAX2 cell-based inhibition, dose response, selectivity assay for PAX8 inhibitor project, plate reader, dry powder samples (AID 743048); format: functional;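 also: HEK293 cells carrying a WT1 promoter luciferase reporter driven by expressed Pax2; potency is for inhibition of Pax2 driven reporter signal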
[13] = cytotoxicity in COV434 cells, dose response, cytotoxicity control for PAX8 inhibitor project, cell-based, plate reader, dry powder, SA7 (AID 743145); format: functional
[14] = P. falciparum Dd2 growth inhibitors, dose response, SYBR Green, dry powder samples (AID 1159566); format: functional, cell-based;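 also: potency for growth inhibition with lower SYBR green DNA signal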
[15] = P. falciparum ATP4 D1247Y mutant growth inhibitors, dose response, NITD609-resistant line, SYBR Green, dry powder (AID 1159571); format: functional, cell-based;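 also: parasites synchronized at ring stage by sorbitol before testing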
[16] = P. falciparum Dd2 growth inhibitors, dose response, SYBR Green, cherry-picked samples (AID 1159567); format: functional, cell-based
[17] = P. falciparum 3D7-ScDHODH growth inhibitors, dose response, SYBR Green, dry powder samples (AID 1159570); format: functional, cell-based;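 also: parasite growth measured after 72 hours of compound exposure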
[18] = cytotoxicity toward HCT116 cells – cell-based, CellTiter-Glo luminescence, IC50, dose response (AID 1117332); format: functional; conditions: HCT-116
[19] = cytotoxicity toward Colo320 cells – cell-based, CellTiter-Glo luminescence, IC50, dose response (AID 1117334); format: functional; conditions: COLO 320
[20] = RKO cell viability reduction, dose response, CellTiter-Glo luminescence (AID 1117322); format: functional
[21] = Concentration-dependent survival of SW480 colon cancer line, luminescence detection with CellTiter-Glo, half-maximal inhibitory concentration (AID 1117338); format: functional
[22] = cytotoxicity toward HT-29 cells – cell-based, CellTiter-Glo luminescence, IC50, dose response (AID 1117330); format: functional
[23] = SNU-C1 cell viability reduction, dose response, CellTiter-Glo luminescence (AID 1117323); format: functional, cell-based
[24] = CellTiter-Glo luminescent dose response of DLD-1 viability loss (AID 1117352); format: functional

Sequence of Beta-galactosidase (Q8VNN2 whole entry): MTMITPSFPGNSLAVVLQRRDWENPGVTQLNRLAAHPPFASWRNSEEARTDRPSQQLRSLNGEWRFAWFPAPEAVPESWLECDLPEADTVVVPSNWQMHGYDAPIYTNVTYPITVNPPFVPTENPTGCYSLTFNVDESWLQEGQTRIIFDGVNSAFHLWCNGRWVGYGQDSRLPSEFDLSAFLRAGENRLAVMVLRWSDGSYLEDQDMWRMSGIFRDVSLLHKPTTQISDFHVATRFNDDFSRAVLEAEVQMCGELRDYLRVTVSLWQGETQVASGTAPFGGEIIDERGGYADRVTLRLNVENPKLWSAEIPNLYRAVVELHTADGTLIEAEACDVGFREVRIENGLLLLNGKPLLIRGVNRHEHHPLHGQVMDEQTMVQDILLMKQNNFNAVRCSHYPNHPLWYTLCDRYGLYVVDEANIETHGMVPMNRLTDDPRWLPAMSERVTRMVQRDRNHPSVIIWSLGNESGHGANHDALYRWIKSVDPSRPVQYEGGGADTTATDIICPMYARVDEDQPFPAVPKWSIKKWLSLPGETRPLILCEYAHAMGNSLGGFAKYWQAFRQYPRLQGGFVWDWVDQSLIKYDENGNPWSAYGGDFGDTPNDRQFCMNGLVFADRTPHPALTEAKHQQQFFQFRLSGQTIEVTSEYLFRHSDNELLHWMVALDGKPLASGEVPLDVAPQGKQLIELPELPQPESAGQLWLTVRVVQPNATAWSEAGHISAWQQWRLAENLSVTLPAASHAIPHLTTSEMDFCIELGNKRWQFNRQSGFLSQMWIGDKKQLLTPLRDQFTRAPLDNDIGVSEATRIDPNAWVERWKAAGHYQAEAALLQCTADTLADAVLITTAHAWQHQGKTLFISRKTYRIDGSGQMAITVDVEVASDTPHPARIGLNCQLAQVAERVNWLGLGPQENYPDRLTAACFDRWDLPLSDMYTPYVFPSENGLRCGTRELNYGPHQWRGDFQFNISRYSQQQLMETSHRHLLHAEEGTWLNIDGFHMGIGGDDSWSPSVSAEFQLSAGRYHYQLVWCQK
Sequence of Protein Tat (P04608 whole entry): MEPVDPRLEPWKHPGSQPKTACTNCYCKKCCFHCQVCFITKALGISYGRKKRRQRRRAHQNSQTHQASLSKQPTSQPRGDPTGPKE
Sequence of Caspase-6 (P55212 24-179 limits assumed): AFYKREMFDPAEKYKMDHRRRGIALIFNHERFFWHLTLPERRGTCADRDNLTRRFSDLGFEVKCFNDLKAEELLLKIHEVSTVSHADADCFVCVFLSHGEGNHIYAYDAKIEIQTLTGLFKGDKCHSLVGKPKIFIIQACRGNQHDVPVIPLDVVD
Sequence of Caspase-6 (P55212 194-293 limits assumed): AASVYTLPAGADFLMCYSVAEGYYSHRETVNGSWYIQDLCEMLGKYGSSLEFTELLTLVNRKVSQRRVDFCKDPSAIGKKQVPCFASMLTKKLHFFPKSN

SMILES: FC(F)(F)c1cc(-c2ccco2)nc(NCc2cccnc2)n1
- IC50 (Protein Tat): > 100 µM (active)

SMILES: COc1ccc(NC(=O)NC(C)C2CC3CCC2C3)cc1 (configuration not stated)
- IC50 [1]: > 67.5 µM (inactive)
- EC50 [2]: > 67.5 µM (inactive)

SMILES: CC1CCCCN1CCNC(=O)CC1Oc2ccccc2NC1=O (configuration not stated)
- IC50 [1]: > 67.5 µM (inactive)
- EC50 [2]: > 67.5 µM (inactive)

SMILES: COc1ccc2nc(NC(=O)C3CCCN(S(=O)(=O)c4cccs4)C3)sc2c1 (configuration not stated)
- IC50 [3]: > 20 µM (inactive)
- CC50 [4]: 35.4 µM (active)

SMILES: Cc1nn(-c2ccc(Br)cc2)c(=O)c2ccccc12
- EC50 [5]: > 67.6 µM (inactive)
- EC50 (cells): > 67.6 µM (inactive)

SMILES: O=C(C(Br)=Cc1ccccc1)c1ccccc1
- AC50 [6]: 10.9 µM (active)

SMILES: O=C(O)c1ccc(N/N=C/C=C/c2ccc([N+](=O)[O-])o2)cc1
- AC50 (Caspase-6): 3.34 µM (active)
- IC50 [7]: 55.5 µM (inactive)
- IC50 (Exodeoxyribonuclease V): > 119 µM (inactive)
- IC50 (Beta-galactosidase): 33 µM (active)

SMILES: O=C(Nc1ccc(F)cc1)N1CCCCN2[C@H](CO)[C@@H](c3ccc(C#Cc4ccccc4)cc3)[C@H]2C1
- AC50 [8]: 8.31 µM (active)
- AC50 [9]: 10.5 µM (active)
- AC50 [6]: 22.2 µM (active)

SMILES: N#C[C@@H]1[C@@H](c2ccc(C3=CCCCC3)cc2)[C@@H](CO)N1C(=O)NC1CCCCC1
- AC50 [10]: 10.6 µM (active)
- AC50 [11]: 29.3 µM (active)
- AC50 [12]: > 32 µM (inactive)
- AC50 [13]: 67.3 µM (active)

SMILES: O=C(Cc1ccccc1)N1CC(=O)N2[C@H](CO)[C@H](c3ccc(C#Cc4ccccc4)cc3)[C@H]2C1
- AC50 [14]: 0.0291 µM (active)
- AC50 [15]: 0.0288 µM (active)
- AC50 [16]: < 0.3 µM (active)
- AC50 [17]: 0.0554 µM (active)

SMILES: OC[C@@H](O)[C@H](O)[C@H](O)[C@@H](O)CO [GALACTITOL]
- IC50 [18]: > 20 µM (inactive)
- IC50 [19]: > 20 µM (inactive)
- IC50 [20]: > 20 µM (inactive)
- IC50 [21]: > 20 µM (inactive)
- IC50 [22]: > 20 µM (inactive)
- IC50 [23]: > 20 µM (inactive)
- IC50 [24]: > 20 µM (inactive)
